Among the data in patent US20230114728A1 (Venatorx Pharmaceuticals, Inc., priority 2019, published 2023) are MIC values, retold here.

What all share (format): cell-based
The test system of assay [1] is A. baumannii ATCC 19606. As to the kind of experiment: Broth microdilution MIC in CAMHB. As to conditions: Acinetobacter baumannii, ATCC19606; MHB; read-out: Minimum Inhibitory Concentration, A. baumannii ATCC 19606. The gist of the method: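 Colonies from cation-adjusted Mueller Hinton agar are grown in broth (3-5 h, 37° C), adjusted by OD600, and added at 2-8×10^5 CFU/mL to 2-fold compound dilutions. After 16-20 h at 37° C, the lowest concentration without growth is taken as MIC.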

Assay [2] relates to E. coli 901C. The assay is described as follows: Broth microdilution MIC in CAMHB. As to conditions: Escherichia coli; E. coli 901C (hyper-permeable); MHB; read-out: Minimum Inhibitory Concentration, E. coli 901C. The gist of the method:
(§1)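 CLSI microdilution; CAMHB; inoculum 2-8×10^5 CFU/mL from 3-5 h 37° C culture; 2-fold compound series; 16-20 h, 37° C; MIC = lowest well without visible growth.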

Assay [3] relates to K. pneumoniae UMM producing SHV-5 and KPC-2. The assay is described as follows: Broth microdilution MIC in CAMHB. As to conditions: Klebsiella pneumoniae, read-out: Minimum Inhibitory Concentration, K. pneumoniae UMM. The gist of the method:
as §1
On the technique in general: Dilution methods test growth across graded concentrations, often in twofold steps.

Assay [4] deals with P. aeruginosa (ΔmexAB-oprM). As to the kind of experiment: Broth microdilution MIC in CAMHB. The conditions noted are these: Pseudomonas aeruginosa, read-out: Minimum Inhibitory Concentration, P. aeruginosa ΔmexAB-OprM. The procedure, abridged:
as §1

Assay [5] deals with P. aeruginosa ATCC 35151. As to the kind of experiment: Broth microdilution MIC in CAMHB. The conditions noted are these: Pseudomonas aeruginosa, ATCC35151; MHB; hyper-permeable strain; read-out: Minimum Inhibitory Concentration, P. aeruginosa ATCC 35151. The procedure, abridged: as §1
The test system of assay [6] is N. gonorrhoeae ATCC 49226. The assay is described as follows: Liquid broth MIC in Fastidious broth. As to conditions: Neisseria gonorrhoeae, ATCC49226; N. gonorrhoeae strain ATCC 49226; Fastidious broth; read-out: Minimum Inhibitory Concentration, N. gonorrhoeae ATCC 49226. The procedure, abridged:
(§2)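 Colonies were swabbed from chocolate agar after 24 h growth and standardised by optical density at 600 nm. Compounds were serially diluted twofold in Fastidious broth, and bacteria added to give 5×10^5 CFU/mL. After about 24 h at 36 °C in 5% CO2, the lowest concentration allowing under 10% growth was taken as MIC.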

Assay [7] relates to N. gonorrhoeae FA1090. As to the kind of experiment: Liquid broth MIC in Fastidious broth. As to conditions: Neisseria gonorrhoeae; N. gonorrhoeae strain FA1090; Fastidious broth; read-out: Minimum Inhibitory Concentration, N. gonorrhoeae FA1090. The gist of the method:
as §2

Assay [8] deals with N. gonorrhoeae H041. The assay is described as follows: Liquid broth MIC in Fastidious broth. As to conditions: Neisseria gonorrhoeae, H041, read-out: Minimum Inhibitory Concentration, N. gonorrhoeae H041. The procedure, abridged: (§3)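 Broth microdilution against gonococcal strains expressing mosaic PBP2, starting inoculum 5×10^5 CFU/mL in Fastidious broth. Incubation runs ~24 h at 36 °C under 5% CO2, with MIC scored visually at <10% of full growth.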

Assay [9] concerns N. gonorrhoeae WHO G. The assay is described as follows: Liquid broth MIC in Fastidious broth. As to conditions: Neisseria gonorrhoeae; N. gonorrhoeae strain WHO G; Fastidious broth; read-out: Minimum Inhibitory Concentration, N. gonorrhoeae WHO G. The procedure, abridged:
as §2

In assay [10] the test system is N. gonorrhoeae WHO K. The assay is described as follows: Liquid broth MIC in Fastidious broth. As to conditions: Neisseria gonorrhoeae, read-out: Minimum Inhibitory Concentration, N. gonorrhoeae WHO K. The procedure, abridged:
as §3

Assay [11] deals with N. gonorrhoeae WHO L. As to the kind of experiment: Liquid broth MIC in Fastidious broth. The conditions noted are these: Neisseria gonorrhoeae; N. gonorrhoeae strain WHO L; Fastidious broth; read-out: Minimum Inhibitory Concentration, N. gonorrhoeae WHO L. The gist of the method: as §2
In assay [12] the test system is N. gonorrhoeae WHO Q. As to the kind of experiment: Liquid broth MIC in Fastidious broth. The conditions noted are these: Neisseria gonorrhoeae, read-out: Minimum Inhibitory Concentration, N. gonorrhoeae WHO Q. The gist of the method:
as §3

The test system of assay [13] is N. gonorrhoeae WHO Z. The assay is described as follows: Liquid broth MIC in Fastidious broth. As to conditions: Neisseria gonorrhoeae, read-out: Minimum Inhibitory Concentration, N. gonorrhoeae WHO Z. The gist of the method: as §3

Values after ≈ are worked out from the molar mass of the structure shown. Some results are limits rather than exact numbers.

As for `CS(=O)(=O)N1CCN(C(=O)N[C@@H](C(=O)N[C@H]2Cc3ccc(F)c(C(=O)O)c3OB2O)c2cc(F)c(O)c(O)c2Cl)C1=O` (single isomer, unassigned) [Example 189], the MIC was 0.5 to 1 µg/mL (≈ 0.79 to 1.58 µM) in assay [1]; 0.5 to 1 µg/mL (≈ 0.79 to 1.58 µM) in [2]; more than 128 µg/mL in assay [3]; 8 to 16 µg/mL (≈ 12.6 to 25.3 µM) in assay [4]; 0.5 to 1 µg/mL (≈ 0.79 to 1.58 µM) in assay [5]; 16 to 32 µg/mL (≈ 25.3 to 50.6 µM) in [6]. Moreover, the MIC in assay [7] was 4 to 8 µg/mL (≈ 6.32 to 12.6 µM); in assay [8], more than 64 µg/mL; in assay [9] it was 16 to 32 µg/mL (≈ 25.3 to 50.6 µM); in assay [10], 16 to 32 µg/mL (≈ 25.3 to 50.6 µM); in assay [11] it was more than 64 µg/mL; in assay [12] it was 16 to 32 µg/mL (≈ 25.3 to 50.6 µM). The MIC in assay [13] lay in the range of 16 to 32 µg/mL (≈ 25.3 to 50.6 µM).

`NCCN1CCN(C(=O)N[C@@H](C(=O)N[C@H]2Cc3cccc(C(=O)O)c3OB2O)c2c(O)cc(O)cc2F)C(=O)C1=O` (single isomer, unassigned) [Example 194]: the MIC in assay [1] fell in the range of 32 to 64 µg/mL (≈ 55.8 to 112 µM); in assay [2], 0.5 to 1 µg/mL (≈ 0.872 to 1.74 µM); in assay [3] it was 8 to 16 µg/mL (≈ 14 to 27.9 µM); in assay [4], 8 to 16 µg/mL (≈ 14 to 27.9 µM); in assay [5], 0.5 to 1 µg/mL (≈ 0.872 to 1.74 µM); in assay [6], 16 to 32 µg/mL (≈ 27.9 to 55.8 µM). In addition, the MIC in assay [7] was 1 to 2 µg/mL (≈ 1.74 to 3.49 µM); in assay [8], more than 64 µg/mL; in assay [9], 4 to 8 µg/mL (≈ 6.98 to 14 µM); in [10], more than 64 µg/mL; in assay [11], more than 64 µg/mL; in [12], more than 64 µg/mL. For the same compound, the MIC in assay [13] is more than 64 µg/mL.

On to `NCCCN1CCN(C(=O)N[C@@H](C(=O)N[C@H]2Cc3cccc(C(=O)O)c3OB2O)c2c(O)cc(O)cc2F)C(=O)C1=O` (single isomer, unassigned) [Example 195], for which the MIC in assay [1] is 32 to 64 µg/mL (≈ 54.5 to 109 µM); in [2], 0.5 to 1 µg/mL (≈ 0.851 to 1.7 µM); in [3], 8 to 16 µg/mL (≈ 13.6 to 27.2 µM); in assay [4], 8 to 16 µg/mL (≈ 13.6 to 27.2 µM); in [5], 0.5 to 1 µg/mL (≈ 0.851 to 1.7 µM); in [6], 16 to 32 µg/mL (≈ 27.2 to 54.5 µM). Besides, the MIC in assay [7] was 1 to 2 µg/mL (≈ 1.7 to 3.41 µM); in assay [8], more than 64 µg/mL; in assay [9], 4 to 8 µg/mL (≈ 6.81 to 13.6 µM); in [10], more than 64 µg/mL; in assay [11], more than 64 µg/mL; in [12], more than 64 µg/mL. For the same compound, in [13], the MIC is more than 64 µg/mL.

For the compound `NCCN1CCN(C(=O)N[C@@H](C(=O)N[C@H]2Cc3cccc(C(=O)O)c3OB2O)c2ccc(O)c([N+](=O)[O-])c2)C(=O)C1=O` (single isomer, unassigned) [Example 199], the MIC in assay [1] is more than 128 µg/mL; in assay [2], 0.5 to 1 µg/mL (≈ 0.856 to 1.71 µM); in assay [3] it was more than 128 µg/mL; in assay [4], 8 to 16 µg/mL (≈ 13.7 to 27.4 µM); in [5], 0.5 to 1 µg/mL (≈ 0.856 to 1.71 µM); in assay [6], 16 to 32 µg/mL (≈ 27.4 to 54.8 µM). Also, the MIC was 1 to 2 µg/mL (≈ 1.71 to 3.42 µM) in [7]; more than 64 µg/mL in assay [8]; 16 to 32 µg/mL (≈ 27.4 to 54.8 µM) in [9]; more than 64 µg/mL in [10]; more than 64 µg/mL in assay [11]; more than 64 µg/mL in assay [12]. The MIC in assay [13] is more than 64 µg/mL.

For `NCCN1CCN(C(=O)N[C@H](C(=O)N[C@H]2Cc3cccc(C(=O)O)c3OB2O)c2ccc(O)c([N+](=O)[O-])c2)C(=O)C1=O` (single isomer, unassigned) [Example 200], the MIC in assay [1] is more than 128 µg/mL; in assay [2], 8 to 16 µg/mL (≈ 13.7 to 27.4 µM); in [3], more than 128 µg/mL; in [4], more than 128 µg/mL; in assay [5], 2 to 4 µg/mL (≈ 3.42 to 6.85 µM); in assay [6], more than 64 µg/mL. Moreover, the MIC in assay [7] is 4 to 8 µg/mL (≈ 6.85 to 13.7 µM); in assay [8] it was more than 64 µg/mL; in [9] it was more than 64 µg/mL; in assay [10], more than 64 µg/mL; in [11] it was more than 64 µg/mL; in assay [12], more than 64 µg/mL. For the same compound, the MIC in assay [13] was more than 64 µg/mL.
